Assay results: patent publication US20060265028A1, “Hair growth” (QLT INC., priority 2003, published 2006)

How the values were obtained:
[1] = topical 0.5% hematoporphyrin and UVA three times a week for eight weeks; first week of treatment; cited from earlier work
alopecia areata = settings: cited from earlier work
[2] = system: human males with type II or III Vertex alopecia; assay: Terminal hair counts 3 months after single topical PDT treatment, compared to baseline; format: in vivo; settings: 3 months after treatment vs baseline, 5 subjects
From the text: As used herein, the term “hair growth” refers to an increase in number of terminal hairs present. Terminal hair counts can be conducted in a number of ways. For example, the terminal hair can be counted by trained and validated technicians who perform a computer-assisted count on macrophotographs. In brief, a target area on the scalp is chosen, the hair clipped and the scalp permanently marked with a single dot tattoo in the center in order to facilitate the exact positioning at each subsequent photo session. The macrophotography is performed using a preset camera with a macro lens and a stand that provides a constant reproduction ratio and electronic flashes that reproducibly illuminate the area to photograph. The images are taken in triplicate, centering the camera using the tattoo and the color slide films are processed at a central facility. The quality of the images is assessed and large transparencies are made of the best images. The terminal hairs on the target circle of the transparencies are then counted by the trained technicians.
A total of 10 subjects were treated. All subjects were human males over 18 years of age and had type II or III Vertex alopecia, rated according to the modified Hamilton-Norwood scale. […]
The efficacy was assessed by hair counts 3 months after the treatment and compared to baseline counts.

[3] = Safety: monitoring all adverse events during and after the PDT treatment; format: in vivo, human; settings: single topical QLT0074 ointment 0.2% w/w plus 50 or 75 J/cm^2 red light; 10 subjects
Description: A total of 10 subjects were treated. All subjects were human males over 18 years of age and had type II or III Vertex alopecia, rated according to the modified Hamilton-Norwood scale.
All subjects received a single application of topical QLT0074 ointment 0.2% weight in weight (w/w) to two of three circular test sites on the vertex area of the scalp. The amount of ointment applied to each test site was approximately 224 mg (about 0.44mg of photosensitizer per test site). After 2 hours the excess drug was removed and red light (LED's—690nm) was administered to two of the three sites. The other test site served as a control with no drug or light administration.
Two light dose cohorts (50 and 75 J/cm^2) were investigated with each cohort having 5 subjects.
Safety was assessed by monitoring all adverse events during and after the treatment.

For `CC1=C(CCC(=O)O)c2cc3[nH]c(cc4nc(cc5[nH]c(cc1n2)c(C)c5C(C)O)C(C)=C4C(C)O)c(C)c3CCC(=O)O` (stereo not drawn) [hematoporphyrin], the “skin reactions at treated sites” value [1] is given as “significant erythema and mild scaling followed by hyperpigmentation”.

For `COc1c2occc2c(OC)c2c(=O)cc(C)oc12` [khellin], the patients treated successfully (alopecia areata; 2% khellin and UVA, alopecia areata) is listed as 5 of the 10 and the phototoxicity (alopecia areata; khellin and UVA) is listed as “did not cause phototoxicity”.

With `C=Cc1c(C)c2cc3nc(cc4[nH]c(cc5nc(cc1[nH]2)C(C)=C5CCC(=O)OCCO)c(CCC(=O)OCCO)c4C)[C@@]1(C)C3=CC=C(C(=O)OC)[C@H]1C(=O)OC` [QLT0074] the “% change in terminal hair count” value ([2]; 50 J/cm^2 red light (690nm) 2 hours after topical QLT0074 ointment 0.2% w/w) was “+8%”, the “% change in terminal hair count” value ([2]; 75 J/cm^2 red light (690nm) 2 hours after topical QLT0074 ointment 0.2% w/w) was “+4%” and the serious adverse events [3] was “No serious adverse events were reported”.
